Experimental data published in publication PMC10893631, “Receptor-based pharmacophore modeling, molecular docking, synthesis and biological evaluation of novel VEGFR-2, FGFR-1, and BRAF multi-kinase inhibitors” (BMC Chemistry, 2024).

Key:
Experiment in all cases: NCI SRB growth inhibition (single dose 10 µM / five-dose)
Type in all cases: cell-based, human
A549/ATCC = conditions: Homo sapiens; for inhibition at 10 µM: A549/ATCC (Non-small cell lung cancer), read-out: GI%; for GI50: A549/ATCC, Non-small cell lung cancer, five-dose
How it was run: (§1)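 SRB read-out. Plating density 5000–40,000 cells/well; Tz fixed at 24 h; 5 conc. (10-fold or ½ log) + control; TCA fix, 0.4% SRB/1% AcOH 10 min RT; % growth = (Ti−Tz)/(C−Tz)×100, or (Ti−Tz)/Tz×100 when Ti<Tz.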

ACHN = conditions: Homo sapiens; for inhibition at 10 µM: ACHN (Renal cancer), read-out: GI%; for GI50: ACHN, Renal cancer, five-dose
How it was run: as §1

BT-549 = conditions: Homo sapiens; for inhibition at 10 µM: BT-549 (Breast cancer), read-out: GI%; for GI50: BT-549, Breast cancer, five-dose
How it was run: as §1

CAKI-1 = conditions: Homo sapiens; for inhibition at 10 µM: CAKI-1 (Renal cancer), read-out: GI%; for GI50: CAKI-1, Renal cancer, five-dose
How it was run: as §1

CCRF-CEM = conditions: Homo sapiens; for inhibition at 10 µM: CCRF-CEM (Leukemia), read-out: GI%; for GI50: CCRF-CEM, Leukemia, five-dose
How it was run: as §1

COLO 205 = conditions: Homo sapiens; for inhibition at 10 µM: COLO 205 (Colon cancer), read-out: GI%; for GI50: COLO 205, Colon cancer, five-dose
How it was run: as §1

DU-145 = conditions: Homo sapiens; for inhibition at 10 µM: DU-145 (Prostate cancer), read-out: GI%; for GI50: DU-145, Prostate cancer, five-dose
How it was run: as §1

EKVX = conditions: Homo sapiens; for inhibition at 10 µM: EKVX (Non-small cell lung cancer), read-out: GI%; for GI50: EKVX, Non-small cell lung cancer, five-dose
How it was run: as §1

HT29 = conditions: Homo sapiens, HT-29; for inhibition at 10 µM: HT29 (Colon cancer), read-out: GI%
How it was run: as §1

IGROV1 = conditions: Homo sapiens, IGROV-1; for inhibition at 10 µM: IGROV1 (Ovarian cancer), read-out: GI%; for GI50: IGROV1, Ovarian cancer, five-dose
How it was run: as §1

K-562 = conditions: Homo sapiens, K562; for inhibition at 10 µM: K-562 (Leukemia), read-out: GI%; for GI50: K-562, Leukemia, five-dose
How it was run: as §1

LOX IMVI = conditions: Homo sapiens; for inhibition at 10 µM: LOX IMVI (Melanoma), read-out: GI%; for GI50: LOX IMVI, Melanoma, five-dose
How it was run: as §1

M14 = conditions: Homo sapiens; for inhibition at 10 µM: M14 (Melanoma), read-out: GI%; for GI50: M14, Melanoma, five-dose
How it was run: as §1

MDA-MB-435 = conditions: Homo sapiens; for inhibition at 10 µM: MDA-MB-435 (Melanoma), read-out: GI%; for GI50: MDA-MB-435, Melanoma, five-dose
How it was run: as §1

NCI-H322M = conditions: Homo sapiens; for inhibition at 10 µM: NCI-H322M (Non-small cell lung cancer), read-out: GI%; for GI50: NCI-H322M, Non-small cell lung cancer, five-dose
How it was run: as §1

NCI-H460 = conditions: Homo sapiens; for inhibition at 10 µM: NCI-H460 (Non-small cell lung cancer), read-out: GI%; for GI50: NCI-H460, Non-small cell lung cancer, five-dose
How it was run: as §1

NCI-H522 = conditions: Homo sapiens; for inhibition at 10 µM: NCI-H522 (Non-small cell lung cancer), read-out: GI%; for GI50: NCI-H522, Non-small cell lung cancer, five-dose
How it was run: as §1

NCI/ADR-RES = conditions: Homo sapiens; for inhibition at 10 µM: NCI/ADR-RES (Ovarian cancer), read-out: GI%; for GI50: NCI/ADR-RES, Ovarian cancer, five-dose
How it was run: as §1

OVCAR-3 = conditions: Homo sapiens; for inhibition at 10 µM: OVCAR-3 (Ovarian cancer), read-out: GI%; for GI50: OVCAR-3, Ovarian cancer, five-dose
How it was run: as §1

OVCAR-4 = conditions: Homo sapiens; for inhibition at 10 µM: OVCAR-4 (Ovarian cancer), read-out: GI%; for GI50: OVCAR-4, Ovarian cancer, five-dose
How it was run: as §1

OVCAR-8 = conditions: Homo sapiens; for inhibition at 10 µM: OVCAR-8 (Ovarian cancer), read-out: GI%; for GI50: OVCAR-8, Ovarian cancer, five-dose
How it was run: as §1

SF-295 = conditions: Homo sapiens; for inhibition at 10 µM: SF-295 (CNS cancer), read-out: GI%; for GI50: SF-295, CNS cancer, five-dose
How it was run: as §1

SK-MEL-2 = conditions: Homo sapiens; for inhibition at 10 µM: SK-MEL-2 (Melanoma), read-out: GI%; for GI50: SK-MEL-2, Melanoma, five-dose
How it was run: as §1

SK-OV-3 = conditions: Homo sapiens; for inhibition at 10 µM: SK-OV-3 (Ovarian cancer), read-out: GI%; for GI50: SK-OV-3, Ovarian cancer, five-dose
How it was run: as §1

SN12C = conditions: Homo sapiens; for GI50: SN12C, Renal cancer, five-dose; for inhibition at 10 µM: SN12C (Renal cancer), read-out: GI%
How it was run: as §1

SR = conditions: Homo sapiens; for inhibition at 10 µM: SR (Leukemia), read-out: GI%; for GI50: SR, Leukemia, five-dose
How it was run: as §1

COc1cccc(C=NNC(=O)c2ccc3[nH]c(-c4ccc(Cl)cc4)nc3c2)c1 [8q, 2-(4-Chlorophenyl)-N'-(3-methoxybenzylidene)-1H-benzo[d]imidazole-5-carbohydrazide]
inhibition at 10 µM (A549/ATCC): > 100% | GI50 (A549/ATCC): 3.22 µM | inhibition at 10 µM (ACHN): > 100% | GI50 (ACHN): 4.21 µM | inhibition at 10 µM (BT-549): 6.97% | GI50 (BT-549): 10.1 µM | inhibition at 10 µM (CAKI-1): > 100% | GI50 (CAKI-1): 3.84 µM | inhibition at 10 µM (CCRF-CEM): 47% | GI50 (CCRF-CEM): 1.95 µM | inhibition at 10 µM (COLO 205): > 100% | GI50 (COLO 205): 4.02 µM | inhibition at 10 µM (DU-145): > 100% | GI50 (DU-145): 2.04 µM | inhibition at 10 µM (EKVX): > 100% | GI50 (EKVX): 3.52 µM | inhibition at 10 µM (HT29): > 100% | GI50 (HT29; HT29, Colon cancer, five-dose): 2.38 µM | inhibition at 10 µM (IGROV1): > 100% | GI50 (IGROV1): 3.01 µM | inhibition at 10 µM (K-562): 98.1% | GI50 (K-562): 3.14 µM | inhibition at 10 µM (LOX IMVI): > 100% | GI50 (LOX IMVI): 1.82 µM | inhibition at 10 µM (M14): > 100% | GI50 (M14): 2.15 µM | inhibition at 10 µM (MDA-MB-435): 98.9% | GI50 (MDA-MB-435): 3.9 µM | inhibition at 10 µM (NCI-H322M): > 100% | GI50 (NCI-H322M): 3.57 µM | inhibition at 10 µM (NCI-H460): > 100% | GI50 (NCI-H460): 3.34 µM | inhibition at 10 µM (NCI-H522): > 100% | GI50 (NCI-H522): 2.26 µM | inhibition at 10 µM (NCI/ADR-RES): 23% | GI50 (NCI/ADR-RES): 94.8 µM | inhibition at 10 µM (OVCAR-3): > 100% | GI50 (OVCAR-3): 3.24 µM | inhibition at 10 µM (OVCAR-4): > 100% | GI50 (OVCAR-4): 3.07 µM | inhibition at 10 µM (OVCAR-8): > 100% | GI50 (OVCAR-8): 2.69 µM | inhibition at 10 µM (SF-295): > 100% | GI50 (SF-295): 2.17 µM | inhibition at 10 µM (SK-MEL-2): > 100% | GI50 (SK-MEL-2): 3.07 µM | inhibition at 10 µM (SK-OV-3): > 100% | GI50 (SK-OV-3): 2.02 µM | GI50 (SN12C): 2.22 µM | inhibition at 10 µM (SR): > 100% | GI50 (SR): 4.15 µM

COc1ccc(-c2nc3cc(C(=O)NN=Cc4ccc(OC)c(O)c4)ccc3[nH]2)cc1 [8l, N'-(3-Hydroxy-4-methoxybenzylidene)-2-(4-methoxyphenyl)-1H-benzo[d]imidazole-5-carbohydrazide]
inhibition at 10 µM (A549/ATCC): 5.94% | inhibition at 10 µM (ACHN): < 5% | inhibition at 10 µM (BT-549): 10.4% | inhibition at 10 µM (CAKI-1): < 5% | inhibition at 10 µM (CCRF-CEM): 89.4% | inhibition at 10 µM (COLO 205): 76.8% | inhibition at 10 µM (DU-145): 27.9% | inhibition at 10 µM (EKVX): 12.9% | inhibition at 10 µM (HT29): > 100% | inhibition at 10 µM (IGROV1): 20.3% | inhibition at 10 µM (K-562): 48.5% | inhibition at 10 µM (LOX IMVI): 37.9% | inhibition at 10 µM (M14): 63.5% | inhibition at 10 µM (MDA-MB-435): 26.5% | inhibition at 10 µM (NCI-H322M): 24% | inhibition at 10 µM (NCI-H460): 15% | inhibition at 10 µM (NCI-H522): 38.2% | inhibition at 10 µM (NCI/ADR-RES): < 5% | inhibition at 10 µM (OVCAR-3): 37.6% | inhibition at 10 µM (OVCAR-4): 9.88% | inhibition at 10 µM (OVCAR-8): 28.1% | inhibition at 10 µM (SF-295): 51% | inhibition at 10 µM (SK-MEL-2): 25.8% | inhibition at 10 µM (SK-OV-3): < 5% | inhibition at 10 µM (SN12C): 27% | inhibition at 10 µM (SR): 72.2%

COc1ccc(-c2nc3cc(C(=O)NN=Cc4ccccc4O)ccc3[nH]2)cc1 [8h, N'-(2-Hydroxybenzylidene)-2-(4-methoxyphenyl)-1H-benzo[d]imidazole-5-carbohydrazide]
inhibition at 10 µM (A549/ATCC): > 100% | GI50 (A549/ATCC): 3.03 µM | inhibition at 10 µM (ACHN): > 100% | GI50 (ACHN): 3.02 µM | inhibition at 10 µM (BT-549): > 100% | GI50 (BT-549): 6.99 µM | inhibition at 10 µM (CAKI-1): > 100% | GI50 (CAKI-1): 1.78 µM | inhibition at 10 µM (CCRF-CEM): 94.3% | GI50 (CCRF-CEM): 0.92 µM | inhibition at 10 µM (COLO 205): > 100% | GI50 (COLO 205): 2.9 µM | inhibition at 10 µM (DU-145): > 100% | GI50 (DU-145): 2.33 µM | inhibition at 10 µM (EKVX): 92.2% | GI50 (EKVX): 3.24 µM | inhibition at 10 µM (HT29): > 100% | inhibition at 10 µM (IGROV1): > 100% | GI50 (IGROV1): 2.26 µM | inhibition at 10 µM (K-562): 99.5% | GI50 (K-562): 1.36 µM | inhibition at 10 µM (LOX IMVI): 98.7% | GI50 (LOX IMVI): 2.23 µM | inhibition at 10 µM (M14): > 100% | GI50 (M14): 3.65 µM | inhibition at 10 µM (MDA-MB-435): > 100% | GI50 (MDA-MB-435): 1.95 µM | inhibition at 10 µM (NCI-H322M): 96.7% | GI50 (NCI-H322M): 4.23 µM | inhibition at 10 µM (NCI-H460): > 100% | GI50 (NCI-H460): 1.87 µM | inhibition at 10 µM (NCI-H522): > 100% | GI50 (NCI-H522): 1.54 µM | inhibition at 10 µM (NCI/ADR-RES): 63.2% | GI50 (NCI/ADR-RES): 6.74 µM | inhibition at 10 µM (OVCAR-3): > 100% | GI50 (OVCAR-3): 1.98 µM | inhibition at 10 µM (OVCAR-4): > 100% | GI50 (OVCAR-4): 2.24 µM | inhibition at 10 µM (OVCAR-8): > 100% | GI50 (OVCAR-8): 1.97 µM | inhibition at 10 µM (SF-295): > 100% | GI50 (SF-295): 1.26 µM | GI50 (SK-MEL-2): 5.17 µM | inhibition at 10 µM (SK-OV-3): > 100% | GI50 (SK-OV-3): 7.3 µM | inhibition at 10 µM (SN12C): > 100% | GI50 (SN12C): 4.99 µM | inhibition at 10 µM (SR): 85.9% | GI50 (SR): 1.17 µM
